{"source": "patent US20070077283A1", "about": "“METHOD OF ENHANCING TRANSMUCOSAL DELIVERY OF THERAPEUTIC COMPOUNDS” (Nastech Pharmaceutical Company Inc., priority 2005, published 2007)", "key": {"[1]": {"system": "human-derived tracheal/bronchial epithelial cells (EpiAirway Tissue Model)", "assay": "Peptide YY (PYY) permeation across epithelial cell monolayer", "type": "cell-based", "settings": "lipid / PYY 10 mg/mL", "procedure": "(§1) Permeation is expressed as percent permeation and was calculated as follows: [formula] [formula] Terms\nIn the instant example, the ability of permeation enhancing lipids to enhance the permeation of the biological agent, peptide YY (PYY; molecular weight of 3.7 kDa) across the epithelial cell monolayer model system (EpiAirway™) was measured. Also, the efficacy of a permeation enhancing lipid to enhance the permeation of insulin across and epithelial cell layer was measured. Refer to Example 2 of the instant application for general protocol details."}, "[2]": {"system": "human-derived tracheal/bronchial epithelial cells (EpiAirway Tissue Model)", "assay": "Transepithelial electrical resistance (TER) of an epithelial cell monolayer", "type": "cell-based", "settings": "for % Original TER: lipid / PYY 10 mg/mL; for activity at 1000 µM: Homo sapiens, Epithelial cell, 1 h, read-out: Mean % of Original TER Value", "procedure": "Inserts are feed for each day of recovery. TER measurements were accomplished using the Endohm-12 Tissue Resistance Measurement Chamber connected to the EVOM Epithelial Voltohmmeter (World Precision Instruments, Sarasota, Fla.) with the electrode leads. The electrodes and a tissue culture blank insert were equilibrated for at least 20 minutes in MatTek medium with the power off prior to checking calibration. The background resistance was measured with 1.5 ml media in the Endohm tissue chamber and 300 μl media in the blank insert. The top electrode was adjusted so that it was close to, but not making contact with, the top surface of the insert membrane. Background resistance of the blank insert was about 5-20 ohms. […] TER values are a function of the surface area of the tissue. […] By this method of calculation, TER will be expressed as both Ohms*cm2 and percent original TER value. […] Several different lipid types (see Table 1) were screened to select for lipids that are capable of enhancing the permeation of a biological agent across an epithelial cell monolayer. […] A reduction in TER correlates with the ability to enhance the permeation of a molecule and biological agent across an epithelia."}, "[3]": {"system": "human-derived tracheal/bronchial epithelial cells (EpiAirway Tissue Model)", "assay": "in vitro", "procedure": "Normal, human-derived tracheal/bronchial epithelial cells will serve as the model cell system for assessing the lipids listed in Table 1. The cells are supplied by MatTek Corp. (Ashland, Mass.) as the EpiAirway™ Tissue Model. The cells are provided as a confluent monolayer on a Millipore Milicell-CM cell culture insert with a pore size of 0.4 μM, inner diameter of 0.8 cm and surface area of 0.6 cm^2 and comprised of transparent hydrophilic Teflon (PTFE). Upon receipt, the membranes are cultured in 1 ml basal media (phenol red-free and hydrocortisone-free Dulbecco's Modified Eagle's Media (DMEM) at 37° C./5% CO2 for 24-48 hours before use. Inserts are feed for each day of recovery.\nThe amount of cell death was assayed by measuring the loss of lactate dehydrogenase (LDH) from the cells using a CytoTox 96 Cytotoxicity Assay Kit (Promega Corp., Madison, Wis.). A treatment of 1% Octylphenolpoly(ethyleneglycolether)x (Triton X-100™) diluted in PBS was used as a lysis control. One percent Triton X-100™ mediated cell lysis was normalized to 100%. For basal-lateral LDH levels, triplicates of 50 μl of the basal media were loaded into a 96-well assay plate. For apical LDH levels, 150 μl of Epi-Cm was added to the apical side of each chamber and mixed by pipeting. One hundred and fifty microliters was then removed and diluted 2-fold prior to performing the LDH assay. All apical LDH assay were performed in triplicate and with 50 μl of the diluted test solution. Fresh, cell-free culture medium will be used as a blank. Total LDH levels were determined by lysing cells in a final concentration of 0.9% Triton-X100™. Fifty microliters of substrate solution was added to each well and the plates incubated for 30 minutes at room temperature in the dark. Following incubation, 50 μl of stop solution was added to each well and the plates read on an optical density plate reader at […]. Cytotoxicity was expressed as a percentage calculated by subtracting the average absorbance of the PBS control wells as the endogenously released LDH level and expressing that value relative to the average Triton-X100 control, which represents total LDH content. [formula] Osmolality\nFor the instant application, phosphate buffered saline (PBS) served as a negative control for both the TER assay and LDH (cytotoxicity) assay. […] TER measurements and LDH levels were taken immediately after a one hour treatment of the cultured cells with each lipid, unless specified otherwrise.\nTER reduction was expressed as the percent decrease in TER value from time zero to one hour post-treatment. Thus, greater percent reduction in TER represents less electrical resistance across the epithelial cell monolayer and consequently greater epithelial cell permeation. Cytotoxicity (LDH levels) for each lipid was expressed as a percent of the LDH levels measured after Triton-X100 treatment of the cells. Triton-X100™ LDH levels were normalized to 100%."}, "[4]": {"system": "human-derived tracheal/bronchial epithelial cells (EpiAirway Tissue Model)", "assay": "FITC-Dextran permeation assay across epithelial cell monolayer", "type": "cell-based", "settings": "for Mean % FD3 Permeation: FITC-dextran 3000 (Table 4); for permeation of FD3 relative to negative controls: text summary of Table 4", "procedure": "Each tissue insert was placed in an individual well containing 1 ml of MatTek basal media. On the apical surface of the inserts, 20 μl of test formulation was applied according to study design, and the samples were placed on a shaker (˜100 rpm) for 1.5 hours at 37° C. FITC-labeled dextran solution was added to inserts apically and a fluorescence measurement was taken from the basolateral media after the incubation period. Two hundred microliters of the basal media for each test formulation was transferred to a dark-wall fluorescent reading plate. Each test formulation was tested in triplicate. Fluorescent intensity was measured at 470 nM with the microplate fluorescence reader FLx800 (Bio-Tek Instruments, Inc., Winooski, Vt.). A FITC labeled dextran with a molecular weight of 3 kDA, 10 kDA, 20 kDA, 40 kDA, 70 kDA and/or 500 kDA was used to assess the ability of individual lipids to deliver a model protein across an epithelia.\nas §1\nPBS and 0.3% Triton-X100™ served as […]. […] FD permeation was presented as the percent of FD that crossed from the apical side of the epithelial cell monolayer to the basolateral cell surface."}, "[5]": {"system": "human-derived tracheal/bronchial epithelial cells (EpiAirway Tissue Model)", "assay": "Cell viability (MTT assay)", "type": "cell-based", "settings": "compared with PBS negative control (Example 5)", "procedure": "Cell viability will be assessed using the MTT assay (MTT-100, MatTek kit). This kit measures the uptake and transformation of tetrazolium salt to formazan dye. Thawed and diluted MTT concentrate is prepared 1 hour prior to the end of the dosing period with the lipid by mixing 2 mL of MTT concentrate with 8 mL of MTT diluent. Each cell culture insert is washed twice with PBS containing Ca^+2 and Mg^+2 and then transferred to a new 96-well transport plate containing 100 μL of the mixed MTT solution per well. This 96-well transport plate is then incubated for three hours at 37° C. and 5% CO2. After the three hour incubation, the MTT solution is removed and the cultures are transferred to a second 96-well feeder tray containing 250 μL MTT extractant solution per well. An additional 150 μL of MTT extractan solution was added to the surface of each culture well and the samples sat at room temperature in the dark for a minimum of two hours and maximum of 24 hours. The insert membrane was then pierced with a pipet tip and the solutions in the upper and lower wells were allowed to mix. Two hundred microliters of the mixed extracted solution along with extracted blanks (negative control) was transferred to a 96-well plate for measurement with a microplate reader. The optical density (OD) of the samples was measured at 570 nm with the background subtraction at 650 nm on a plate reader. Cell viability was expressed as a percentage and calculated by dividing the OD readings for treated inserts by the OD readings for the PBS treated inserts and multiplying by 100. For the purposes of this assay, it was assumed that PBS had no effect on cell viability and therefore represented 100% cell viability."}, "[6]": {"settings": "lipid 1000 μM, lower value = greater TER reduction (Table 4)"}, "[7]": {"settings": "lipid 1000 μM, percent decrease in TER from time zero"}}, "data": [{"smiles": "CCCCCCCCCCCCCCCCOC[C@H](COP(=O)([O-])OCCCCCC[N+](C)(C)C)OC(C)=O", "note": "[PAF-antagonist, 1-O-Hexadecyl-2-O-Acetyl-sn-Glycero-3-Phospho(N,N,N-trimethyl) Hexanolamine]", "values": [{"measurement": "% PYY Permeation", "setting": "[1]", "result": "enhanced permeation of PYY equivalent to or above the positive control PN159"}, {"measurement": "% PYY Permeation", "setting": "[1]; listed as PAF-antangonist", "result": 2.4, "unit": "%"}, {"measurement": "Mean % of Original TER Value", "setting": "[2]; lipid 500 μM (Table 4)", "result": 20, "unit": "%"}, {"measurement": "Mean % of Original TER Value", "setting": "[2]; [6]", "result": 9, "unit": "%"}, {"measurement": "% Original TER", "setting": "[2]", "result": "reduced TER below that of the positive control PN159 and equivalent to the positive control Special Sauce"}, {"measurement": "% Original TER", "setting": "[2]; listed as PAF-antangonist", "result": 2, "unit": "%"}, {"measurement": "Mean % Relative Cytotoxic Effect (LDH)", "setting": "[3]; lipid 500 μM (Table 4)", "result": 8, "unit": "%"}, {"measurement": "Mean % Relative Cytotoxic Effect (LDH)", "setting": "[3]; lipid 1000 μM (Table 4)", "result": 10, "unit": "%"}, {"measurement": "Mean % FD3 Permeation", "setting": "[4]; lipid 500 μM", "result": 6, "unit": "%"}, {"measurement": "% FITC-Dextran Permeation FD10", "setting": "[4]; lipid 1000 μM", "result": 5, "unit": "%"}, {"measurement": "% FITC-Dextran Permeation FD40", "setting": "[4]; lipid 1000 μM", "result": 2, "unit": "%"}, {"measurement": "% FITC-Dextran Permeation FD3", "setting": "[4]; lipid 1000 μM (Table 5)", "result": 11, "unit": "%"}, {"measurement": "Mean % FD3 Permeation", "setting": "[4]; lipid 1000 μM", "result": 11, "unit": "%"}, {"measurement": "permeation of FD3 relative to negative controls", "setting": "[4]", "result": "enhanced the permeation of FD3 above that of the negative controls"}]}, {"smiles": "CCCCCCCCCCCCCCCCOC[C@H](COP(=O)([O-])OCC[N+](C)(C)C)OC(=O)CCCCCCCC(=O)O", "note": "[Azelaoyl PAF (C16-09:0), 1-O-Hexadecyl-2-Azelaoyl-sn-Glycero-3-Phosphocholine]", "values": [{"measurement": "activity at 1000 µM", "setting": "[2]; [6]", "result": -5, "unit": "%"}, {"measurement": "Mean TER Reduction 1 hr. Post-treatment", "setting": "[2]; lipid 62.5 μM", "result": 41, "unit": "%"}, {"measurement": "Mean TER Reduction 1 hr. Post-treatment", "setting": "[2]; lipid 125 μM", "result": 76, "unit": "%"}, {"measurement": "Mean TER Reduction 1 hr. Post-treatment", "setting": "[2]; lipid 250 μM", "result": 93, "unit": "%"}, {"measurement": "Mean TER Reduction 1 hr. Post-treatment", "setting": "[2]; lipid 500 μM", "result": 93, "unit": "%"}, {"measurement": "Mean TER Reduction 1 hr. Post-treatment", "setting": "[2]; [7]", "result": 95, "unit": "%"}, {"measurement": "LDH levels", "setting": "[3]; human, 1 h", "result": "below 30%"}, {"measurement": "Cytotoxic Effect (LDH) 1 hr. Post-treatments", "setting": "[3]; human, 1 h, 62.5 μM", "result": 2, "unit": "%"}, {"measurement": "Cytotoxic Effect (LDH) 1 hr. Post-treatments", "setting": "[3]; human, 1 h, 125 μM", "result": 5, "unit": "%"}, {"measurement": "Cytotoxic Effect (LDH) 1 hr. Post-treatments", "setting": "[3]; human, 1 h, 250 μM", "result": 10, "unit": "%"}, {"measurement": "Cytotoxic Effect (LDH) 1 hr. Post-treatments", "setting": "[3]; human, 1 h, 500 μM", "result": 16, "unit": "%"}, {"measurement": "Cytotoxic Effect (LDH) 1 hr. Post-treatments", "setting": "[3]; human, 1 h, 1000 μM", "result": 26, "unit": "%"}, {"measurement": "Mean % Relative Cytotoxic Effect (LDH)", "setting": "[3]; human, 1 h, 1000 μM", "result": 3, "unit": "%"}, {"measurement": "% FITC-Dextran Permeation FD3", "setting": "[4]; lipid 250 μM (Table 5)", "result": 1, "unit": "%"}, {"measurement": "Mean % FD3 Permeation", "setting": "[4]; lipid 1000 μM", "result": 9, "unit": "%"}, {"measurement": "permeation of FD3 relative to negative controls", "setting": "[4]", "result": "enhanced the permeation of FD3 above that of the negative controls"}, {"measurement": "MTT levels (cell viability)", "setting": "[5]", "result": "MTT levels comparable to that of the PBS negative control"}]}, {"smiles": "CCCCCCCCCCCCCCCCCCOC[C@H](COP(=O)([O-])OCC[N+](C)(C)C)OC", "note": "[18:0-1:0 Diether PC, 1-O-Octadecyl-2-O-Methyl-sn-Glycero-3-Phosphocholine]", "values": [{"measurement": "activity at 1000 µM", "setting": "[2]; [6]", "result": 111, "unit": "%"}, {"measurement": "Mean TER Reduction 1 hr. Post-treatment", "setting": "[2]; lipid 500 μM", "result": 89, "unit": "%"}, {"measurement": "Mean TER Reduction 1 hr. Post-treatment", "setting": "[2]; [7]", "result": 99, "unit": "%"}, {"measurement": "Cytotoxic Effect (LDH) 1 hr. Post-treatments", "setting": "[3]; human, 1 h, 500 μM", "result": 26, "unit": "%"}, {"measurement": "Cytotoxic Effect (LDH) 1 hr. Post-treatments", "setting": "[3]; human, 1 h, 1000 μM", "result": 50, "unit": "%"}, {"measurement": "Mean % Relative Cytotoxic Effect (LDH)", "setting": "[3]; human, 1 h, 1000 μM", "result": "−1", "unit": "%"}, {"measurement": "% FITC-Dextran Permeation FD3", "setting": "[4]; lipid 500 μM (Table 5)", "result": 5, "unit": "%"}, {"measurement": "Mean % FD3 Permeation", "setting": "[4]; lipid 1000 μM", "result": 0, "unit": "%"}, {"measurement": "MTT levels (cell viability)", "setting": "[5]", "result": "MTT levels comparable to that of the PBS negative control"}]}]}
